Reference: patent publication US20150065494A1, “AMINOSTYRYLBENZOFURAN DERIVATIVES AS INHIBITORS AGAINST BETA-AMYLOID FIBRIL FORMATION, AND PHARMACEUTICAL COMPOSITION COMPRISING SAME” (KOREA INSTITUTE OF SCIENCE AND TECHNOLOGY, priority 2012, published 2015)
Where a name gives a salt, the structure may show the parent alone. Read-outs that look alike come from different tables or passages of the source.

Key:
[1] = molecular target: hERG potassium ion channel (Homo sapiens, UniProt Q12809); experiment: Inhibitory effect of hERG potassium ion channel (whole-cell patch clamp, HEK-hERG cell line); type: cell-based
Sequence of hERG potassium ion channel (Q12809 whole entry): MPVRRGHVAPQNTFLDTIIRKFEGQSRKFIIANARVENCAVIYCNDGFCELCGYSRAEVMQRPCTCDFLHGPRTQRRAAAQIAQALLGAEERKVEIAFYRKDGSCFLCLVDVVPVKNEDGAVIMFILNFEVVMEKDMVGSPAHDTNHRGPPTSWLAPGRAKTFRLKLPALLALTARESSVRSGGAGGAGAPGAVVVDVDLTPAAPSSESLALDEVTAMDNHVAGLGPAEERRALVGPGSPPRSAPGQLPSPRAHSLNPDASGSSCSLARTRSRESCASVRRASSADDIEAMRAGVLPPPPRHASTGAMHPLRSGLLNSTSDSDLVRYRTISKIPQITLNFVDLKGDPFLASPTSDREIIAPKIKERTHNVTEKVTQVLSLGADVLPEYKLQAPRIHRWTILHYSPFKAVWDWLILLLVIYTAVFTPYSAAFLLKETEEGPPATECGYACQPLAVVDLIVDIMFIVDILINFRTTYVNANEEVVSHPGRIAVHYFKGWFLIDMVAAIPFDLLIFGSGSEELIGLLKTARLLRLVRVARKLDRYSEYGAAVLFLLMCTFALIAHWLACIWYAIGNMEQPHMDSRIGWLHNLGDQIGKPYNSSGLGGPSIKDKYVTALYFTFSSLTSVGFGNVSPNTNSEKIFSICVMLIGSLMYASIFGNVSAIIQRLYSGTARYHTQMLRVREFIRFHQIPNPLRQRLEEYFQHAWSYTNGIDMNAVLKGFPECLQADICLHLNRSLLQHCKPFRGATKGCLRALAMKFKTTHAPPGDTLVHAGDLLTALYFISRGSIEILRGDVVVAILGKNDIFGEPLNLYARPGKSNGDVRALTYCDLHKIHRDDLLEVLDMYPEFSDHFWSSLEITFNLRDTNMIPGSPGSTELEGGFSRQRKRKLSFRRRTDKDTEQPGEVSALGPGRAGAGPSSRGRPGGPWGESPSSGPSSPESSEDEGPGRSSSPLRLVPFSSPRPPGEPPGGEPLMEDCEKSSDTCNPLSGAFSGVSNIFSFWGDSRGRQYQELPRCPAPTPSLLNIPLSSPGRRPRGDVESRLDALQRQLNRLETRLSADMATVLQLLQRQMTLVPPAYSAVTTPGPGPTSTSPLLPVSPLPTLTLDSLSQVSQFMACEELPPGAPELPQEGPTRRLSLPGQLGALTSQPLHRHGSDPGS
Description: A HEK-hERG cell line (IonGate Biosciences, Frankfrut, Germany) which stably expresses hERG was cultured in a DMEM (Dulbecco's modified Eagle's Medium, Sigma Co., St. Louis, Mo., USA) supplemented with 10% fetal bovine serum (FBS, Cambrex, Walkesville, Md., USA) and 0.5 mg/mL zeocin (Invitrogen, Carlsbad, Calif., USA). The cell line was subcultured for 5 days after culture when 80% confluency was reached.
A solution within an electrode used to measure the potassium ion current is composed of 115 mM K-aspartate, 20 mM KCl, 10 mM EGTA, 10 mM HEPES, 2.5 mM tris-phosphocreatine, 0.1 mM Na2GTP and 5 mM MgCl2 (pH 7.2, 290 mOsm/Kg H2O). A solution for an extracellular perfusate is composed of 135 mM NaCl, 5 mM KCl, 1 mM MgCl2, 2 mM CaCl2, 10 mM glucose and 10 mM HEPES (pH 7.2, 300 mOsm/Kg H2O). […]
Potassium ion current was measured by using EPC10 (Instrutech Co., NY, USA) patch clamp amplifier in accordance with the conventional whole-cell patch clamp method. […] The membrane capacitance and series resistance of cell membrane were calibrated by 80% or more and potassium ion current was measured at a sampling rate of 2 kHz and a low-pass filter of 2 kHz (−3 dB; 8-pole Bassel filter). […]
The results were analyzed by using Pulse/Pulsefit (v9.0, HEKA Elektronik, Lambrecht, Germany) and Igor macro. […]

[2] = molecular target: T1, beta-amyloid 42 (Aβ42) (Homo sapiens, UniProt P05067); experiment: Inhibitory effect on the formation of beta-amyloid fibrils in vitro (ThT fluorescence assay); type: biochemical; settings: for inhibition at 10 µM: 10 μM compound, 25 μM Aβ42, ThT fluorescence
T1 construct: Beta-amyloid 42 (Aβ42) was dissolved in dimethylsulfoxide (DMSO) to form a 250 mM Aβ42 stock solution
T1 sequence (P05067 672-713 limits assumed): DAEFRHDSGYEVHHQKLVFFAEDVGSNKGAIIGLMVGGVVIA
Description: Beta-amyloid 42 (Aβ42) was dissolved in dimethylsulfoxide (DMSO) to form a […] Aβ42 stock solution. In addition, ThT (thioflavin T) was dissolved in distilled water to obtain a concentration of 1 mM and subsequently diluted with 50 mM glycin buffer (pH 8.5) to yield a 5 μM ThT stock solution. 45 μL of PBS (phosphate buffer saline, pH 7.4) was added to each of a 96-well fluorescence microplate (white, F-bottom). 5 μL of the 250 μM Aβ42 stock solution was added to each well. The final concentration of each compound obtained in Examples was in a range of 10 to 0.001 μM by adding 2 μL of a solution, which was prepared by dissolving the subject compounds obtained in Examples in DMSO, to each well. At this time, the final concentration of Aβ42 in each well was 25 μM. The plate was then incubated for 1 hr at room temperature, and 150 μL of the 5 μM ThT stock solution was added to each well.
The fluorescence intensity of each well was determined with the multi-label fluorescence counter (LS-55 Luminescence spectrometer: Perkin Elmer) at an excitation wavelength of 450 nm (excitation slit width: 10 nm) and an emission wavelength of 482 nm (emission slit width: 10 nm), while adjusting counting time to 1 second. The control group was prepared by adding PBS solution, Aβ42 and DMSO, without adding the inventive compound prepared above. A percent inhibition on the formation of beta-amyloid fibrils was calculated in accordance with the following equation, and IC50 was calculated by using GraphPad Prism version 4.03 Program.
% Inhibition=[1−(C−D)/(A−B)]×100
A (control group)=fluorescence intensity in a group treated with PBS solution, Aβ42 and DMSO
B (blank)=fluorescence intensity in a group treated with PBS solution and DMSO
C (experimental group)=fluorescence intensity in a group treated with PBS solution, Aβ42, the inventive compound and DMSO
D (compensation value to the experimental group) =fluorescence intensity in a group treated with PBS solution, the inventive compound and DMSO

[3] = Pharmacokinetics test (blood concentration) in mice and rats; type: in vivo, ICR mice and SD rats
Description: (§1) Three 7 week-old ICR mice (weight: approximately 30 g) and three 8 week-old SD rats (weight: approximately 250 g) were used per test group. A solution prepared by dissolving a hydrochloride salt of the compound of Example 3 in excipient (DMSO/Tween 20/saline: 0.1/0.6/2.3, v/v/v) or distilled water was administered to each experimental animal. The test compound was intravenously administered in an amount of 5 mL per kg of body weight through the fine vein or orally administered in an amount of 10 mL per kg of body weight.
At 0.5, 1, 2, 4, 10, and 24 hrs after the oral administration of the test compounds, the blood was collected from periorbital veins into the tube containing heparin (1000 IU/mL, 3 μL) for the mice, and from jugular veins for rats. The blood samples were centrifuged (12,000 rpm for 2 min, Eppendorf Co.) to obtain plasmas and the obtained plasmas were kept in a freezer until the analysis at −80° C.
(§2) 50 μL of plasma was placed in a 2.0 mL tube with a cap (Eppendorf Co.) and acidified by adding 20 μL of 0.1% formic acid thereto. An internal standard solution and 1 mL of ethyl acetate as an extract solvent were added to the resulting solution. The resulting solution was mixed by using a thermomixer (Eppendorf Co.) for 5 min at 1,400 rpm, and then subjected to centrifugation (Eppendorf Co.). The supernatant was collected and concentrated at 35° C. by using a cyclone. The residue was re-dissolved in 50 μL of mobile phase and 5 μL of the resulting solution was injected into LC/MS and analyzed.
(§3) In Table 3, “iv” refers to intravenous injection; “po” refers to per oral; “AUC plasma” refers to an area under the plasma level-time curve; “Cmax” refers to a maximum plasma concentration; “Tmax” refers to a time to reach Cmax; “BA” refers to bioavailability (%) according to Equation 2 below; “AUC Brain” refers to an area under the brain tissue level-time curve; and “AUCBrain/AUCPlasma” refers to a passage rate of the test compound to the brain.
Bioavailability (%)=[(AUCpo/AUCiv)×(Doseiv/Dosepo)×100]
In the above Equation, AUCpo refers to an area under the blood concentration time curve (AUC) after per oral administration, AUCiv means an AUC after the intravenous injection; Doseiv refers to a dose of the intravenous injection; and Dosepo refers to a dose of the per os.

[4] = Passage test through the blood-brain barrier (brain tissue concentration); type: in vivo, ICR mice and SD rats; settings: for Kp: brain, read-out: AUCBrain/AUCPlasma
Description: as §1, with “v/v/v)” for “v/v/v) or distilled water”
At 0.5, 1, 2, 4, 10 and 24 hrs after the administration of the test compound, the mice and rats were subjected to insufflations narcosis using isoflorane, followed by cutting the abdomen open. Subsequently, 1 mL of blood was collected from abdominal veins into the tube containing heparin (1000 IU/mL, 3 μL). The obtained blood samples were centrifuged for 2 min at 12,000 rpm to obtain plasma. The obtained plasmas were kept in a freezer at −80° C. until the analysis.
The mice and rats from which the blood samples were obtained were subjected to bloodletting, and then, the brain tissues of the mice and rats was collected. The brain tissue thus obtained was washed with physiological saline 1 or 2 times to remove blood. The weight of the brain tissue was measured after the removal of adipose tissue and peripheral tissue. 4% bovine serum albumin (BSA) solution diluted with 10-fold was added to the brain tissue. The resulting solution was subjected to homogenization using a homogenizer. The diluted homogenate thus obtained was placed in 2 mL tube and was kept in a freezer at −80° C. until the analysis. All of the treatments to the sample were performed in ice.
as §2, with “cap (Eppendorf Co.). An internal” for “cap (Eppendorf Co.) and acidified by adding 20 μL of 0.1% formic acid thereto. An internal”, “by using thermomixer (Eppendorf” for “by using a thermomixer (Eppendorf”, “min at 1400 rpm, and” for “min at 1,400 rpm, and”
as §3

Structure (SMILES) | inhibitory efficacy on hERG potassium ion channel ([1]; result in words) | inhibition at 10 µM [2] [%] | IC50 ([1]; HEK-hERG cells, whole-cell patch clamp, mean ± standard error) [µM] | Aβ42 % inhibition compared with comparative compound curcumin ([2]; 10 μM) | BA ([3]; 10.0 mg/kg po vs 5.0 mg/kg iv) [%] | AUC ([3]; plasma, 5.0 mg/kg, iv, n = 3) [ng·h/mL] | AUC ([3]; plasma, 10.0 mg/kg, po, n = 3) [ng·h/mL] | Cmax ([3]; plasma, 10.0 mg/kg, po, n = 3) [ng/mL] | Tmax ([3]; plasma, 10.0 mg/kg, po, n = 3) [h] | AUC Brain ([4]; 5.0 mg/kg, iv, brain tissue) | AUC Brain ([4]; 10.0 mg/kg, po, brain tissue) | Cmax (brain) ([4]; 10.0 mg/kg, po, brain tissue) | Tmax ([4]; 10.0 mg/kg, po, brain tissue) [h] | Kp ([4]; 5.0 mg/kg, iv) | Kp ([4]; 10.0 mg/kg, po)
CN(C)CCOc1ccc2cc(/C=C/c3ccc(N(C)C)cc3)oc2c1 [Example 2, (E)-6-(2-dimethylaminoethoxy)-2-(4-dimethylaminostyryl)benzofuran] | insignificant inhibitory efficacy | – | – | – | – | – | – | – | – | – | – | – | – | – | –
CN(C)CCOc1ccc2cc(/C=C/c3ccc(N(C)C)cc3)oc2c1 [Example 22, (E)-6-(2-dimethylaminoethoxy)-2-(4-dimethylaminostyryl)benzofuran hydrochloride] | – | ≥ 70 | 52.1 ± 3.68 | – | – | – | – | – | – | – | – | – | – | – | –
CN(C)CCCOc1ccc2cc(/C=C/c3ccc(N(C)C)cc3)oc2c1.Cl [Example 23, (E)-6-(3-dimethylaminopropoxy)-2-(4-dimethylaminostyryl)benzofuran hydrochloride] | – | ≥ 70 | – | equal to or greater than that of the comparative compound, curcumin | 43.4 | 535 | 472 | 62.7 | 4 | 54,114.7 ng · h/ml | 27,412 ng · h/ml | 3,828 ng/ml | 10 | 101 | 58.1
